Reference: patent US9995734B2, “Human T cell line assay for evaluating the immunologic identity of glatiramer acetate preparations” (Mylan Inc., priority 2013, dated 2018)

Tests used:
[1] = tested on: Donor 6 GMA-Reactive T-Cell Lines; experiment: ATP proliferation assay, Donor 6 GMA-reactive T-cell lines; format: cell-based, human; details: Day 35, GMA Lot 001 and COP 10 μg/mL
[2] = tested on: Donor 2 Human T-Cell Lines; experiment: BrdU uptake proliferation assay, Donor 2 T-cell lines stimulated with GMA; format: cell-based; details: 100 μg/mL GMA; for BrdU uptake: Day 13
Experimental: Proliferation was evaluated by measuring ATP content using a luminescent method (CellTiter Glo Luminescent Cell Viability Assay, Promega, Madison, Wis., cat. #G7571) or by measuring BrdU uptake by ELISA (Millipore cat. #2752), in both cases following kit instructions. A split well format was used. Cells in each well were resuspended and 65 μl transferred to the wells of each of two new U-bottom 96-well plates, to generate the replicate plates. […] Therefore, all three plates received autologous APC (PBMC) treated with mitomycin C to prevent cell division. […] The latter two plates were incubated for 3 days at 37° C., 6% CO2 before adding CellTiter Glo or BrdU and measuring signal. IL-2 was added at 10 U/mL to the original 96-well plate for expansion on Day 17. For subsequent screenings, mitomycin-treated EBV-transformed autologous B-LCL (2×10^5 to 5×10^5 cells/mL) were used as APC.
PBMC were obtained from a normal, healthy, donor having MHC Class II HLA-DRβ1 04:01, 04:04 (Donor 2). […] Nine presumptive GA-specific human T-cell lines were selected for expansion and further analysis based on an increase in the OD of the GA-stimulated test sample of at least 50% relative to an unstimulated control sample.

[3] = tested on: Donor 1 Human T-Cell Lines (GMA-stimulated); experiment: BrdU uptake proliferation assay, Donor 1 T-cell lines initially stimulated with GMA; format: cell-based; details: 10 μg/mL GMA
Experimental: Proliferation was evaluated by measuring ATP content using a luminescent method (CellTiter Glo Luminescent Cell Viability Assay, Promega, Madison, Wis., cat. #G7571) or by measuring BrdU uptake by ELISA (Millipore cat. #2752), in both cases following kit instructions. A split well format was used. Cells in each well were resuspended and 65 μl transferred to the wells of each of two new U-bottom 96-well plates, to generate the replicate plates. For the initial screening, the original 96-well plate received mitomycin-treated autologous PBMC as APC plus 10 μg/mL antigen (GA). A first replicate plate received 100 μl., mitomycin-treated PBMC alone (2×10^5), and no antigen, and a second replicate plate received 100 μL mitomycin-treated PBMC plus GA at a final concentration of 10 μg/mL. Therefore, all three plates received autologous APC (PBMC) treated with mitomycin C to prevent cell division. […] The latter two plates were incubated for 3 days at 37° C., 6% CO2 before adding CellTiter Glo or BrdU and measuring signal. IL-2 was added at 10 U/mL to the original 96-well plate for expansion on Day 17. For subsequent screenings, mitomycin-treated EBV-transformed autologous B-LCL (2×10^5 to 5×10^5 cells/mL) were used as APC.
GMA-responsive cell lines were obtained from Donor 1 PBMC as described above (2×10^5 cells/well, i.e., 1×10^6 cells/mL, plated with 10 μg/mL GMA; IL-2 added on Days 3 and 7). In a split well assay begun on Day 12 the cells were stimulated with 10 μg/mL GMA and 1×10^5 mitomycin-treated autologous PBMC as APC. BrdU was added on Day 3, cells were incubated 4.5 hours and fixed, and uptake measured. […] These cell lines each produced an increase in signal of at least 50% relative to (no antigen) control.

glatiramer acetate [COP] gave an ATP proliferation assay ([1]; Cell line 224-B6-001) of 78357 RLU, an ATP proliferation assay ([1]; Cell line 224-B7-001) of 20586 RLU and an ATP proliferation assay ([1]; Cell line 224-B11-001) of 27861 RLU. The ATP proliferation assay ([1]; Cell line 224-C4-001) was 52771 RLU, the ATP proliferation assay ([1]; Cell line 224-C11-001) was 87933 RLU and the ATP proliferation assay ([1]; Cell line 224-D2-001) was 26027 RLU. The ATP proliferation assay ([1]; Cell line 224-D6-001) was 68767 RLU, the ATP proliferation assay ([1]; Cell line 224-E2-001) was 233094 RLU and the ATP proliferation assay ([1]; Cell line 224-E7-001) was 137556 RLU. The ATP proliferation assay ([1]; Cell line 224-F4-001) was 114667 RLU, the ATP proliferation assay ([1]; Cell line 224-G2-001) was 227257 RLU and the ATP proliferation assay ([1]; Cell line 224-G10-001) was 229933 RLU. For the same substance, the ATP proliferation assay ([1]; Cell line 224-G11-001) was 91466 RLU.

glatiramer acetate [GMA] showed a BrdU uptake ([2]; 206-1A6, control 0.220) of 0.563 OD450, a BrdU uptake ([2]; 206-1A7, control 0.329) of 0.688 OD450 and a BrdU uptake ([2]; 206-1A11, control 0.151) of 0.452 OD450. The BrdU uptake ([2]; 206-1C12, control 0.272) was 0.626 OD450, the BrdU uptake ([2]; 206-1H1, control 0.109) was 0.447 OD450 and the BrdU uptake ([2]; 206-1H2, control 0.095) was 0.526 OD450. It also gave a BrdU uptake ([2]; 206-2A1, control 0.259) of 0.548 OD450, a BrdU uptake ([2]; 206-2A10, control 0.162) of 0.444 OD450 and a BrdU uptake ([2]; 206-2C3, control 0.146) of 0.358 OD450. The “difference in BrdU uptake from control” value ([2]; nine Donor 2 lines of Table 17) was “greater than two-fold”, the “increase in the OD of the GA-stimulated test sample relative to an unstimulated control sample” value ([2]; nine Donor 2 lines of Table 17) was “at least 50%” and the BrdU uptake ([3]; 222-AC11, control 0.680) was 1.244 OD450. The BrdU uptake ([3]; 222-AF2, control 0.454) was 1.119 OD450, the BrdU uptake ([3]; 222-AF5, control 0.606) was 1.133 OD450 and the BrdU uptake ([3]; 222-AG11, control 0.359) was 0.875 OD450. It also gave a BrdU uptake ([3]; 222-AG12, control 0.448) of 0.949 OD450, a BrdU uptake ([3]; 222-BA4, control 0.370) of 0.603 OD450 and a BrdU uptake ([3]; 222-BA11, control 0.255) of 0.783 OD450. For the same substance, the BrdU uptake ([3]; 222-BC11, control 0.499) was 0.921 OD450 and the “increase in signal relative to (no antigen) control” value ([3]; eight Donor 1 cell lines of Table 4) was “at least 50%”.
